Experimental data reported in ChEMBL document CHEMBL3414487, “Synthesis and biological activity of salinomycin conjugates with floxuridine” (Eur J Med Chem, 2015).
≈ marks a conversion by molar mass, not a printed value.

Columns and labels:
[1] = Antiproliferative activity against human vincristine-resistant HL60/Vinc cells assessed as growth inhibition after 72 hrs by MTT assay; type: functional; conditions: Homo sapiens, HL60/vinc, 72 h
LoVo [2] = test: Antiproliferative activity against human LoVo cells assessed as growth inhibition after 72 hrs by SRB method; type: functional, cell-based; conditions: for IC50: Homo sapiens, LoVo, 72 h
[3] = Antiproliferative activity against human doxorubicin-resistant LoVo/DX cells assessed as growth inhibition after 72 hrs by SRB method; type: functional, cell-based
HT-29 [4] = test: Antiproliferative activity against human HT-29 cells assessed as growth inhibition after 72 hrs by SRB method; type: functional, cell-based; conditions: for IC50: Homo sapiens, HT-29, 72 h
[5] = Antiproliferative activity against human SW707 cells assessed as growth inhibition after 72 hrs by SRB method; type: functional, cell-based; conditions: for IC50: Homo sapiens, SW707, 72 h
BALB/3T3 = test: Antiproliferative activity against mouse BALB/3T3 cells assessed as growth inhibition after 72 hrs by SRB method; type: cell-based; conditions: BALB/3T3, 72 h
[6] = Antiproliferative activity against human HL60 cells assessed as growth inhibition after 72 hrs by MTT assay; type: functional, cell-based; conditions: HL-60, 72 h
[7] = Antiproliferative activity against human LS180 cells assessed as growth inhibition after 72 hrs by SRB method; type: functional, cell-based
HL-60 [8] = test: Selectivity index, ratio of IC50 for mouse BALB/3T3 cells to IC50 for human HL60 cells; type: functional
[9] = Selectivity index, ratio of IC50 for mouse BALB/3T3 cells to IC50 for human HL60/Vinc cells; type: functional
[10] = Selectivity index, ratio of IC50 for mouse BALB/3T3 cells to IC50 for human LoVo/DX cells; type: functional
HL-60 [11] = test: Resistance index, ratio of IC50 for human HL60/Vinc cells to IC50 for human HL60 cells
Staphylococcus aureus [12] = test: Antimicrobial activity against Staphylococcus aureus […] 4163 after 18 hrs by two-fold serial microdilution method; type: functional
Staphylococcus aureus [13] = test: Antimicrobial activity against Staphylococcus aureus ATCC 25923 after 18 hrs by two-fold serial microdilution method; type: functional; conditions: ATCC 25923, 18 h
Staphylococcus aureus [14] = test: Antimicrobial activity against Staphylococcus aureus ATCC 6538 after 18 hrs by two-fold serial microdilution method; type: functional; conditions: ATCC 6538, 18 h
Staphylococcus aureus [15] = test: Antimicrobial activity against Staphylococcus aureus ATCC 29213 after 18 hrs by two-fold serial microdilution method; type: functional; conditions: ATCC 29213, 18 h
[16] = test system: Staphylococcus epidermidis; test: Antimicrobial activity against Staphylococcus epidermidis ATCC 12228 after 18 hrs by two-fold serial microdilution method; type: functional; conditions: ATCC 12228, 18 h
[17] = test system: Staphylococcus epidermidis; test: Antimicrobial activity against Staphylococcus epidermidis ATCC 35984 after 18 hrs by two-fold serial microdilution method; type: functional; conditions: ATCC 35984, 18 h
Staphylococcus aureus [18] = test: Antimicrobial activity against methicillin-resistant Staphylococcus aureus 452/11 after 18 hrs by two-fold serial microdilution method; type: functional; conditions: 452/11, 18 h
Staphylococcus aureus [19] = test: Antimicrobial activity against methicillin-resistant Staphylococcus aureus 456/11 after 18 hrs by two-fold serial microdilution method; type: functional; conditions: 456/11, 18 h
Staphylococcus aureus [20] = test: Antimicrobial activity against methicillin-resistant Staphylococcus aureus 462/11 after 18 hrs by two-fold serial microdilution method; type: functional; conditions: 462/11, 18 h
Staphylococcus aureus [21] = test: Antimicrobial activity against methicillin-resistant Staphylococcus aureus 514/11 after 18 hrs by two-fold serial microdilution method; type: functional; conditions: 514/11, 18 h
Staphylococcus aureus [22] = test: Antimicrobial activity against methicillin-resistant Staphylococcus aureus 522/12 after 18 hrs by two-fold serial microdilution method; type: functional; conditions: 522/12, 18 h
Staphylococcus aureus [23] = test: Antimicrobial activity against methicillin-resistant Staphylococcus aureus 537/12 after 18 hrs by two-fold serial microdilution method; type: functional; conditions: 537/12, 18 h
Staphylococcus aureus [24] = test: Antimicrobial activity against methicillin-resistant Staphylococcus aureus 572/12 after 18 hrs by two-fold serial microdilution method; type: functional; conditions: 572/12, 18 h
Staphylococcus aureus [25] = test: Antimicrobial activity against methicillin-resistant Staphylococcus aureus 573/12 after 18 hrs by two-fold serial microdilution method; type: functional; conditions: 573/12, 18 h
Staphylococcus aureus [26] = test: Antimicrobial activity against methicillin-resistant Staphylococcus aureus 585/12 after 18 hrs by two-fold serial microdilution method; type: functional; conditions: 585/12, 18 h
Staphylococcus aureus [27] = test: Antimicrobial activity against methicillin-resistant Staphylococcus aureus 586/12 after 18 hrs by two-fold serial microdilution method; type: functional; conditions: 586/12, 18 h
[28] = test system: Staphylococcus epidermidis; test: Antimicrobial activity against methicillin-resistant Staphylococcus epidermidis 459/11 after 18 hrs by two-fold serial microdilution method; type: functional; conditions: 459/11, 18 h
[29] = test system: Staphylococcus epidermidis; test: Antimicrobial activity against methicillin-resistant Staphylococcus epidermidis 460/11 after 18 hrs by two-fold serial microdilution method; type: functional; conditions: 460/11, 18 h
[30] = test system: Staphylococcus epidermidis; test: Antimicrobial activity against methicillin-resistant Staphylococcus epidermidis 461/11 after 18 hrs by two-fold serial microdilution method; type: functional; conditions: 461/11, 18 h
[31] = test system: Staphylococcus epidermidis; test: Antimicrobial activity against methicillin-resistant Staphylococcus epidermidis 466/11 after 18 hrs by two-fold serial microdilution method; type: functional; conditions: 466/11, 18 h
[32] = test system: Staphylococcus epidermidis; test: Antimicrobial activity against methicillin-resistant Staphylococcus epidermidis 467/11 after 18 hrs by two-fold serial microdilution method; type: functional; conditions: 467/11, 18 h
[33] = test system: Staphylococcus epidermidis; test: Antimicrobial activity against methicillin-resistant Staphylococcus epidermidis 468/11 after 18 hrs by two-fold serial microdilution method; type: functional; conditions: 468/11, 18 h
[34] = test system: Staphylococcus epidermidis; test: Antimicrobial activity against methicillin-resistant Staphylococcus epidermidis 469/11 after 18 hrs by two-fold serial microdilution method; type: functional; conditions: 469/11, 18 h
[35] = test system: Staphylococcus epidermidis; test: Antimicrobial activity against methicillin-resistant Staphylococcus epidermidis 470/11 after 18 hrs by two-fold serial microdilution method; type: functional; conditions: 470/11, 18 h
[36] = test system: Staphylococcus epidermidis; test: Antimicrobial activity against methicillin-resistant Staphylococcus epidermidis 488/11 after 18 hrs by two-fold serial microdilution method; type: functional; conditions: 488/11, 18 h
[37] = test system: Staphylococcus epidermidis; test: Antimicrobial activity against methicillin-resistant Staphylococcus epidermidis 489/11 after 18 hrs by two-fold serial microdilution method; type: functional; conditions: 489/11, 18 h
LoVo [38] = test: Selectivity index, ratio of IC50 for mouse BALB/3T3 cells to IC50 for human LoVo cells; type: functional
HT-29 [39] = test: Selectivity index, ratio of IC50 for mouse BALB/3T3 cells to IC50 for human HT-29 cells; type: functional
[40] = Selectivity index, ratio of IC50 for mouse BALB/3T3 cells to IC50 for human LS180 cells; type: functional
[41] = Selectivity index, ratio of IC50 for mouse BALB/3T3 cells to IC50 for human SW707 cells; type: functional
LoVo [42] = test: Resistance index, ratio of IC50 for human LoVo/DX cells to IC50 for human LoVo cells

COc1cccc2c1C(=O)c1c(O)c3c(c(O)c1C2=O)C[C@@](O)(C(=O)CO)C[C@@H]3O[C@H]1C[C@H](N)[C@H](O)[C@H](C)O1 [DOXORUBICIN]
IC50 [1]: 0.88 µM
IC50 (LoVo [2]): 0.15 µM
IC50 [3]: 5.46 µM
IC50 (HT-29 [4]): 0.89 µM
IC50 [5]: 0.18 µM
IC50 (BALB/3T3): 0.18 µM

[N-]=[N+]=N[C@H]1C[C@H](n2cc(F)c(=O)[nH]c2=O)O[C@@H]1CO
IC50 [6]: 180 µM
IC50 [1]: 294 µM
inhibition (INH) (LoVo [2]): 43%
IC50 [3]: 290 µM
inhibition (INH) (HT-29 [4]): 25%
inhibition (INH) [7]: 25%
inhibition (INH) [5]: 41%
IC50 (BALB/3T3): 97.3 µM
Selectivity Index (HL-60 [8]): 0.54
Selectivity Index [9]: 0.33
Selectivity Index [10]: 0.34
Ratio IC50 (HL-60 [11]): 1.63
MIC (Staphylococcus aureus [12]): 3.69 µM (≈ 1 µg/mL)
MIC (Staphylococcus aureus [13]): 3.69 µM (≈ 1 µg/mL)
MIC (Staphylococcus aureus [14]): 3.69 µM (≈ 1 µg/mL)
MIC (Staphylococcus aureus [15]): 7.38 µM (≈ 2 µg/mL)
MIC [16]: 1.85 µM (≈ 0.502 µg/mL)
MIC [17]: 7.38 µM (≈ 2 µg/mL)
MIC (Staphylococcus aureus [18]): 3.69 µM (≈ 1 µg/mL)
MIC (Staphylococcus aureus [19]): 3.69 µM (≈ 1 µg/mL)
MIC (Staphylococcus aureus [20]): 7.38 µM (≈ 2 µg/mL)
MIC (Staphylococcus aureus [21]): 3.69 µM (≈ 1 µg/mL)
MIC (Staphylococcus aureus [22]): 7.38 µM (≈ 2 µg/mL)
MIC (Staphylococcus aureus [23]): 7.38 µM (≈ 2 µg/mL)
MIC (Staphylococcus aureus [24]): 3.69 µM (≈ 1 µg/mL)
MIC (Staphylococcus aureus [25]): 7.38 µM (≈ 2 µg/mL)
MIC (Staphylococcus aureus [26]): 3.69 µM (≈ 1 µg/mL)
MIC (Staphylococcus aureus [27]): 3.69 µM (≈ 1 µg/mL)
MIC [28]: 0.92 µM (≈ 0.25 µg/mL)
MIC [29]: 0.92 µM (≈ 0.25 µg/mL)
MIC [30]: 1.85 µM (≈ 0.502 µg/mL)
MIC [31]: 0.46 µM (≈ 0.125 µg/mL)
MIC [32]: 0.92 µM (≈ 0.25 µg/mL)
MIC [33]: 0.92 µM (≈ 0.25 µg/mL)
MIC [34]: 3.69 µM (≈ 1 µg/mL)
MIC [35]: 0.92 µM (≈ 0.25 µg/mL)
MIC [36]: 0.92 µM (≈ 0.25 µg/mL)
MIC [37]: 3.69 µM (≈ 1 µg/mL)

O=c1[nH]c(=O)n([C@H]2C[C@H](O)[C@@H](CO)O2)cc1F [FLOXURIDINE]
IC50 [6]: 0.24 µM
IC50 [1]: 17.4 µM
IC50 (LoVo [2]): 19.1 µM
IC50 [3]: 16.7 µM
IC50 (HT-29 [4]): 115 µM
IC50 ([7]; Homo sapiens, LS180, 72 h): 140 µM
IC50 [5]: 23.9 µM
IC50 (BALB/3T3): 23.9 µM
Selectivity Index (HL-60 [8]): 99.58
Selectivity Index [9]: 1.37
Selectivity Index (LoVo [38]): 1.25
Selectivity Index [10]: 1.43
Selectivity Index (HT-29 [39]): 0.21
Selectivity Index [40]: 0.17
Selectivity Index [41]: 1
Ratio IC50 (HL-60 [11]): 72.5
Ratio IC50 (LoVo [42]): 0.87
MIC (Staphylococcus aureus [12]): ≤ 0.016 µM
MIC (Staphylococcus aureus [13]): ≤ 0.016 µM
MIC (Staphylococcus aureus [14]): ≤ 0.016 µM
MIC (Staphylococcus aureus [15]): ≤ 0.016 µM
MIC [16]: ≤ 0.016 µM
MIC [17]: ≤ 0.016 µM
MIC (Staphylococcus aureus [18]): ≤ 0.016 µM
MIC (Staphylococcus aureus [19]): ≤ 0.016 µM
MIC (Staphylococcus aureus [20]): ≤ 0.016 µM
MIC (Staphylococcus aureus [21]): ≤ 0.016 µM
MIC (Staphylococcus aureus [22]): ≤ 0.016 µM
MIC (Staphylococcus aureus [23]): ≤ 0.016 µM
MIC (Staphylococcus aureus [24]): ≤ 0.016 µM
MIC (Staphylococcus aureus [25]): ≤ 0.016 µM
MIC (Staphylococcus aureus [26]): ≤ 0.016 µM
MIC (Staphylococcus aureus [27]): ≤ 0.016 µM
MIC [28]: ≤ 0.016 µM
MIC [29]: ≤ 0.016 µM
MIC [30]: ≤ 0.016 µM
MIC [31]: ≤ 0.016 µM
MIC [32]: ≤ 0.016 µM
MIC [33]: ≤ 0.016 µM
MIC [34]: ≤ 0.016 µM
MIC [35]: ≤ 0.016 µM
MIC [36]: ≤ 0.016 µM
MIC [37]: ≤ 0.016 µM
